Data as given in patent US9145411B2, “Substituted amino-pyrimidine derivatives” (Asana Biosciences, LLC, priority 2012, dated 2015).

What was measured:
PI3Kα (wild-type) = target: T1, PI3Kα (wild-type) (Homo sapiens, UniProt P42336); assay: PI3 Kinase TR-FRET assay, PI3Kα (wild-type); assay type: biochemical; settings: wild-type P110/P85α, 10 μM ATP
T1 construct: made in house; host or cells: SF9 insect cells
Protocol: The ability of compounds of the invention to inhibit PI3K activity was determined in a homogeneous TR-FRET assay using a PI3K assay kit (Millipore, USA; cat #33-016) according to manufacturer's instructions. PI3-Kinases (isoforms α, β, γ and δ) catalyze the phosphorylation of phosphatidylinositol, PIP2 to PIP3 in the presence of ATP and Mg^2+. The PIP3 product is detected by displacement of biotin-PIP3 from an energy transfer complex consisting of Europium labeled anti-GST monoclonal antibody, a GST-tagged PH domain, biotinylated PIP3 and Streptavidin-APC. Excitation of Europium in the complex results in an energy transfer to the APC and a fluorescence emission at 665 nm. The PIP3 product displaces biotin-PIP3 from the complex resulting in a loss of energy transfer and thus a decrease in signal.
To test for the ability of compounds to inhibit the activity of PI3Kα (wild-type), exemplary compounds of formula (I) were dissolved in DMSO and directly distributed into 384-well plates at a volume of 0.5 μL. 14.5 μL of P110/P85α/PIP2 mixture in buffer (obtained from the Millipore kit) containing MgCl2 (40 mM) and DTT (5 mM) was added to compound wells and incubated for 60 minutes at room temperature. P110/P85α was expressed in SF9 insect cells and purified nickel column extraction. Five ng of wild-type P110/P85α was used in the assay. The kinase reaction was started by the addition of ATP. The assay concentrations of both PIP2 and ATP were 10 μM. The reaction mixture was incubated for 30 minutes at room temperature and was terminated by the addition of stop mix and detection mix. Fluorescence was measured at 615 and 665 nm upon excitation at 340 nm in a Victor™ V5 fluorometer (Perkin Elmer, USA). The fluorescence emission ratio at 665 to 615 nm, proportional to the kinase activity, was plotted against the compound concentration to generate dose-response curves and IC50 values were determined using GraphPad Prism® 5 software.

mTOR kinase = target: T2, mTOR kinase (Homo sapiens, UniProt P42345); assay: mTOR kinase TR-FRET assay; assay type: biochemical; settings: 20 μM ATP
T2 construct: purchased Millipore, USA
T2 sequence (P42345 1362-2549 limits assumed): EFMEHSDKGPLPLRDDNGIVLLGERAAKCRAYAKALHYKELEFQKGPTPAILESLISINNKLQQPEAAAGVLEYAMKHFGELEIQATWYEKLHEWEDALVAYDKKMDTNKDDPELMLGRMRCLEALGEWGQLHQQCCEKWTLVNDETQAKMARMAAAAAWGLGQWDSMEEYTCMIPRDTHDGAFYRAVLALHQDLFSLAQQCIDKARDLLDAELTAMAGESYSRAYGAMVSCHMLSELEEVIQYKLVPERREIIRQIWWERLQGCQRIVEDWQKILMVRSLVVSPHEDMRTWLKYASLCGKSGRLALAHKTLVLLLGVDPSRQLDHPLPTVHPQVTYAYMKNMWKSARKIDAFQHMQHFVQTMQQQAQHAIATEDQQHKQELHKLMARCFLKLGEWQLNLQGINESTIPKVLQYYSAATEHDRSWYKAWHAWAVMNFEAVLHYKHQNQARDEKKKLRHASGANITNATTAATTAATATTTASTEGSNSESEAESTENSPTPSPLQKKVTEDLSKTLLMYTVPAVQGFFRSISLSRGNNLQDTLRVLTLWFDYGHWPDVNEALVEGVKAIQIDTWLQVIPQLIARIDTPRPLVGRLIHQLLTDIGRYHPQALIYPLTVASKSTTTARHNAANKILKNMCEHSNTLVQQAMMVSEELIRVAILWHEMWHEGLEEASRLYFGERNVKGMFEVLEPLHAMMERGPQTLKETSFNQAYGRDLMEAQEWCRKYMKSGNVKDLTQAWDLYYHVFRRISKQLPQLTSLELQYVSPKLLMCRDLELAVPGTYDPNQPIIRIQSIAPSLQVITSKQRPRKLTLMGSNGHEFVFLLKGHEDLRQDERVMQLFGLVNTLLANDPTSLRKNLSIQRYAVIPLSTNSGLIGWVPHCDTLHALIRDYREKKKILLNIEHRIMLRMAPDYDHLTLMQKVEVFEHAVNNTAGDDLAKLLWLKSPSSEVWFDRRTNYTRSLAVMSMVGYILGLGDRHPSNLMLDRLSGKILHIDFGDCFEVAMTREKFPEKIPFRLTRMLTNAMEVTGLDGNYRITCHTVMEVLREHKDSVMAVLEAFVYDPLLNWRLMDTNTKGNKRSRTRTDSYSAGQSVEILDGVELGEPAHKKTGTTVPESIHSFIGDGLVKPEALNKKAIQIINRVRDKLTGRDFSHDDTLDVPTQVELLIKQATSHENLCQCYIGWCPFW
Protocol: Compound inhibition for mTOR kinase was determined in a homogeneous TR-FRET assay using the Lance® ULight-p70 S6K (Thr 389) peptide (obtained from Perkin-Elmer). The ULight™-labeled synthetic peptide contains the amino acid residues surrounding Thr389 of human p70 S6K. The ULight-p70 S6K peptide is phosphorylated at Thr389 by mTOR. Phosphorylation motif: LGFTYVAP as substrate.
The compound dilution was carried out in 100% DMSO followed by a buffer dilution. The reaction buffer was HEPES (50 mM pH 7.5), EGTA (1 mM), MnCl2 (3 mM). Test compounds at various concentrations were pre-incubated with mTOR (Millipore, USA; 5 ng) for 60 min, and then the Lance® ULight-p70 S6K (Thr 389) peptide (50 nM) was added along with ATP (20 μM). After incubating the reaction mixture for 60 minutes at room temperature, the kinase reaction was terminated by the addition of EDTA (10 mM) followed by the addition of detection mix, i.e., 1 nM Eu-labeled anti-phospho-substrate antibody (Perkin Elmer, USA). The fluorescence emission at […] was measured upon excitation at 340 nm. IC50 values were subsequently determined using a sigmoidal dose-response curve (variable slope) in GraphPad Prism® 5 software.
Compounds of formula (I) caused inhibition of mTOR kinase activity as determined by this assay.

PC3 cells = assay: XTT assay for cell viability, PC3 cells; assay type: cell-based; settings: Homo sapiens, PC-3; PC3 cell proliferation, 96 hours
Protocol: Using a commercial kit from Sigma Aldrich (Catalog #X34251) and following its protocol, PC3 cells in the log phase of growth were employed and seeded at an optimal density of 1000 cell/well on to 96 well plates and incubated for 24 hours followed by the addition of compounds of formula (I) in serial dilutions. Compound dilutions were made in DMSO. The cells were incubated with the compounds of formula (I) for 96 hours and XTT tetrazolium dye (Sigma, USA) was subsequently added and incubated at 37° C. After the color formation, absorbance was measured at 465 nm in a Spectramax® Gemini spectrophotometer. EC50 values were calculated using a sigmoidal dose response curve fit in GraphPad Prism® v5 software. The tested compounds of formula (I) which caused inhibition of PC3 cell proliferation as determined by this assay protocol are shown in Table 2.

T1 sequence (P42336 whole entry, species assumed): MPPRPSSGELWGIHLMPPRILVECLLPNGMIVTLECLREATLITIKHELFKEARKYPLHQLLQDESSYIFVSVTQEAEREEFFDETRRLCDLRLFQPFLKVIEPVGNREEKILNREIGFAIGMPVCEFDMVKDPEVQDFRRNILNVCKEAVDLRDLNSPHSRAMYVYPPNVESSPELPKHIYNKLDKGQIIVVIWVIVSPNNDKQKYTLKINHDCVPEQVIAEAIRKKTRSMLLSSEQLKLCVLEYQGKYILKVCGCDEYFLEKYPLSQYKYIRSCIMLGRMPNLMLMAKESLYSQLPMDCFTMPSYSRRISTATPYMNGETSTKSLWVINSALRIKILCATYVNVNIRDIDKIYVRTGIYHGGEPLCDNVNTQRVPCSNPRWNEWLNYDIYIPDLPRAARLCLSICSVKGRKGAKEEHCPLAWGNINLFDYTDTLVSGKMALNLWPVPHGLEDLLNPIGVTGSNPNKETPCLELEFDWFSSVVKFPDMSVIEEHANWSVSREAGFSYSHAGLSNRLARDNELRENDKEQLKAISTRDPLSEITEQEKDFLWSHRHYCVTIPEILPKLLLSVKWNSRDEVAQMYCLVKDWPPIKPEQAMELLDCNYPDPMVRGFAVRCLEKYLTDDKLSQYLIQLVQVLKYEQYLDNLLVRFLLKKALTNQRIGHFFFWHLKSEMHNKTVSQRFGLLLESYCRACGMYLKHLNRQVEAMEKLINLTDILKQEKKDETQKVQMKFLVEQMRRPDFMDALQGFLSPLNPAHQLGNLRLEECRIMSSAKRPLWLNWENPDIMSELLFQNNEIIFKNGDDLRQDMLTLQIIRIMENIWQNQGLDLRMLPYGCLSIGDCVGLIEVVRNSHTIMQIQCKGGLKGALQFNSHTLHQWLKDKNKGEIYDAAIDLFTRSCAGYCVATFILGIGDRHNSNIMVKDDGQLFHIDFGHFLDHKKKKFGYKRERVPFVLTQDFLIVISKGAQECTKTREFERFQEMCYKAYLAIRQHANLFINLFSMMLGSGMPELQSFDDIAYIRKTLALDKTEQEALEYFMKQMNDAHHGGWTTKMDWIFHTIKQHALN
T1 sequence (P27986 whole entry partner, species assumed): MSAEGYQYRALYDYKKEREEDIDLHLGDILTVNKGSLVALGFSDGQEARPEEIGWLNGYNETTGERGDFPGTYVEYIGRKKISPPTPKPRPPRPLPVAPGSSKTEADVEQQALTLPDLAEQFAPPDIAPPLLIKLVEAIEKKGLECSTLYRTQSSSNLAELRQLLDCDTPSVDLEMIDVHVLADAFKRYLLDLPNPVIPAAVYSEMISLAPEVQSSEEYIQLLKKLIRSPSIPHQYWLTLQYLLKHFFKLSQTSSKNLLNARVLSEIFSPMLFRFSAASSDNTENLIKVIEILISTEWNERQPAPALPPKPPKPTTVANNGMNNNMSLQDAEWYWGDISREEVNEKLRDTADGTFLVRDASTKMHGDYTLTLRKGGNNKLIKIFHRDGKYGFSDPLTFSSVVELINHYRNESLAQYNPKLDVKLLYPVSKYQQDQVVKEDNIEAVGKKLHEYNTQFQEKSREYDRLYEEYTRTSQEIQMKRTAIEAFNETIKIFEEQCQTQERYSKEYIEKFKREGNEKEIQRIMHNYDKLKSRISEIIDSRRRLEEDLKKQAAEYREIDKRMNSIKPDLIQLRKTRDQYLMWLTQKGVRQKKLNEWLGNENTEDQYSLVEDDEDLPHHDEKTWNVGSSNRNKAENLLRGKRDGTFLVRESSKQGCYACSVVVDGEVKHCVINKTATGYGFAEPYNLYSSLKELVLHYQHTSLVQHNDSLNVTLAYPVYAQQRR

Structure (SMILES)	IC50 (PI3Kα (wild-type)) [nM]	IC50 (mTOR kinase) [nM]	IC50 (PC3 cells) [nM]
CS(=O)(=O)Nc1cccc(-c2ccc3c(N4CCOCC4)nc(-c4cnc(N)nc4)nc3c2)c1 [Example 16, N-(3-(2-(2-amino-pyrimidin-5-yl)-4-morpholinoquinazolin-7-yl)phenyl)methane-sulfonamide]	50 to 200	< 50	501 to 5000
CC(=O)N1CCN(C(=O)c2cccc(-c3cnc4c(N5CCOCC5)nc(-c5cnc(N)nc5)nc4c3)c2)CC1 [Example 35, 1-(4-(3-(2-(2-amino-pyrimidin-5-yl)-4-morpholinopyrido[3,2-d]-pyrimidin-7-yl)benzoyl)-piperazin-1-yl)ethanone]	< 50	50 to 200	501 to 5000
CC(=O)Nc1ccc(F)c(-c2cnc3c(N4CCOCC4)nc(-c4cnc(N)nc4)nc3c2)c1F [Example 123, N-(3-(2-(2-amino-pyrimidin-5-yl)-4-morpholinopyrido[3,2-d]pyrimidin-7-yl)-2,4-difluorophenyl)acetamide]	< 50	50 to 200	100 to 500
CN1CCN(c2cncc(-c3cnc4c(N5CCOCC5)nc(-c5cnc(N)nc5)nc4c3)c2)CC1 [Example 100, 5-(7-(5-(4-methyl-piperazin-1-yl)pyridin-3-yl)-4-morpholino-pyrido[3,2-d]pyrimidin-2-yl)pyrimidin-2-amine]	< 50	50 to 200	501 to 5000
Nc1ncc(-c2nc(N3CCOCC3)c3ncc(-c4ccc(NC(=O)c5cccnc5)cc4)cc3n2)cn1 [Example 77, N-(4-(2-(2-amino-pyrimidin-5-yl)-4-morpholinopyrido[3,2-d]pyrimidin-7-yl)-phenyl)nicotinamide]	< 50	< 50	100 to 500
Nc1ncc(-c2nc(N3CCOCC3)c3ncc(-c4ccc(C(=O)NC5CC5)cc4)cc3n2)cn1 [Example 4, 4-(2-(2-Aminopyrimidin-5-yl)-4-morpholinopyrido[3,2-d]pyrimidin-7-yl)-N-cyclopropylbenzamide]	< 50	< 50	< 100
CC(=O)Nc1ccc(F)c(-c2cnc3c(N4CCOCC4)nc(-c4cnc(N)nc4)nc3c2)c1 [Example 55, N-(3-(2-(2-amino-pyrimidin-5-yl)-4-morpholinopyrido[3,2-d]pyrimidin-7-yl)-4-fluorophenyl)acetamide]	< 50	50 to 200	100 to 500
Nc1ncc(-c2nc(N3CCOCC3)c3ncc(-c4ccc(C(=O)N5CCC(O)CC5)cc4)cc3n2)cn1 [Example 39, (4-(2-(2-aminopyrimidin-5-yl)-4-morpholino-pyrido[3,2-d]pyrimidin-7-yl)phenyl)(4-hydroxy-piperidin-1-yl)methanone]			501 to 5000
Nc1ncc(-c2nc(N3CCOCC3)c3ncc(-c4cccc(N5CCNCC5)c4)cc3n2)cn1 [Example 106, 5-(4-morpholino-7-(3-(piperazin-1-yl)-phenyl)pyrido[3,2-d]-pyrimidin-2-yl)pyrimidin-2-amine]	< 50	50 to 200	501 to 5000
Nc1ncc(-c2nc(N3CCOCC3)c3ncc(-c4cccc(C(=O)N5CCN(CCO)CC5)c4)cc3n2)cn1 [Example 116, (3-(2-(2-aminopyrimidin-5-yl)-4-morpholinopyrido[3,2-d]-pyrimidin-7-yl)phenyl)(4-(2-hydroxyethyl)piperazin-1-yl)methanone]	< 50	201 to 10000	501 to 5000
Cc1cc(C(=O)Nc2ccc(-c3cnc4c(N5CCOCC5)nc(-c5cnc(N)nc5)nc4c3)cc2)[nH]n1 [Example 80, N-(4-(2-(2-amino-pyrimidin-5-yl)-4-morpholinopyrido[3,2-d]pyrimidin-7-yl)phenyl)-3-methyl-1H-pyrazole-5-carboxamide]			> 1000
CN1CCN(C(=O)c2cccc(-c3cnc4c(N5CCOCC5)nc(-c5cnc(N)nc5)nc4c3)c2)CC1 [Example 110, (3-(2-(2-aminopyrimidin-5-yl)-4-morpholinopyrido[3,2-d]-pyrimidin-7-yl)phenyl)(4-methylpiperazin-1-yl)-methanone]		50 to 200	100 to 500
CC(C)(O)C(=O)Nc1cccc(-c2ccc3c(N4CCOCC4)nc(-c4cnc(N)nc4)nc3c2)c1 [Example 6, N-(3-(2-(2-Aminopyrimidin-5-yl)-4-morpholinoquinazolin-7-yl)phenyl)-2-hydroxy-2-methylpropanamide]	50 to 200	50 to 200	
CC(O)C(=O)N1CCN(Cc2ccc3c(N4CCOCC4)nc(-c4cnc(N)nc4)nc3c2)CC1 (centres unmarked) [Example 90, 1-(4-((2-(2-aminopyrimidin-5-yl)-4-morpholinoquinazolin-7-yl)methyl)piperazin-1-yl)-2-hydroxypropan-1-one]	201 to 10000	201 to 10000	
Nc1ncc(-c2nc(N3CCOCC3)c3ccc(-c4cccnc4F)cc3n2)cn1 [Example 19, 5-(7-(2-fluoropyridin-3-yl)-4-morpholino-quinazolin-2-yl)-pyrimidin-2-amine]	> 1000	> 1000	
Nc1ncc(-c2nc(N3CCOCC3)c3ccc(-c4cncnc4)cc3n2)cn1 [Example 12, 5-(4-morpholino-7-(pyrimidin-5-yl)quinazolin-2-yl)pyrimidin-2-amine]	201 to 10000	201 to 10000	
Nc1ncc(-c2nc(N3CCOCC3)c3ncc(-c4cc(NC(=O)c5cccnc5)ccc4F)cc3n2)cn1 [Example 71, N-(3-(2-(2-amino-pyrimidin-5-yl)-4-morpholinopyrido[3,2-d]-pyrimidin-7-yl)-4-fluoro-phenyl)nicotinamide]	< 50	< 50	
CN(C)CC(=O)N1CCN(c2cccc(-c3cnc4c(N5CCOCC5)nc(-c5cnc(N)nc5)nc4c3)c2)CC1 [Example 112, 1-(4-(3-(2-(2-amino-pyrimidin-5-yl)-4-morpholinopyrido[3,2-d]pyrimidin-7-yl)-phenyl)piperazin-1-yl)-2-(dimethylamino)ethanone]	< 50	< 50	
Nc1ncc(-c2nc(N3CCOCC3)c3ncc(-c4cccc(C(=O)N5CCC(O)CC5)c4)cc3n2)cn1 [Example 40, (3-(2-(2-aminopyrimidin-5-yl)-4-morpholino-pyrido[3,2-d]pyrimidin-7-yl)phenyl)(4-hydroxy-piperidin-1-yl)methanone]			100 to 500
CS(=O)(=O)Nc1cncc(-c2cnc3c(N4CCOCC4)nc(-c4cnc(N)nc4)nc3c2)c1 [Example 96, N-(5-(2-(2-amino-pyrimidin-5-yl)-4-morpholinopyrido[3,2-d]-pyrimidin-7-yl)pyridin-3-yl)methanesulfonamide]	< 50	< 50	
CN1CCN(C(=O)Nc2cccc(-c3ccc4c(N5CCOCC5)nc(-c5cnc(N)nc5)nc4c3)c2)CC1 [Example 87, N-(3-(2-(2-amino-pyrimidin-5-yl)-4-morpholinoquinazolin-7-yl)phenyl)-4-methyl-piperazine-1-carboxamide]	< 50	201 to 10000	
Nc1ncc(-c2nc(N3CCOCC3)c3ncc(CN4CCNCC4)cc3n2)cn1 [Example 94, 5-(4-morpholino-7-(piperazin-1-yl-methyl)pyrido[3,2-d]-pyrimidin-2-yl)pyrimidin-2-amine]	50 to 200	201 to 10000	
